63 compounds from ChEMBL document CHEMBL3879900, “aSMase inhibitors” (2012) can be followed below.

The source made the active and inactive calls. No rule for the calls is given here.

This test has as its target T1, Sphingomyelin phosphodiesterase (Homo sapiens) (UniProt P17405).
T1 sequence (whole entry): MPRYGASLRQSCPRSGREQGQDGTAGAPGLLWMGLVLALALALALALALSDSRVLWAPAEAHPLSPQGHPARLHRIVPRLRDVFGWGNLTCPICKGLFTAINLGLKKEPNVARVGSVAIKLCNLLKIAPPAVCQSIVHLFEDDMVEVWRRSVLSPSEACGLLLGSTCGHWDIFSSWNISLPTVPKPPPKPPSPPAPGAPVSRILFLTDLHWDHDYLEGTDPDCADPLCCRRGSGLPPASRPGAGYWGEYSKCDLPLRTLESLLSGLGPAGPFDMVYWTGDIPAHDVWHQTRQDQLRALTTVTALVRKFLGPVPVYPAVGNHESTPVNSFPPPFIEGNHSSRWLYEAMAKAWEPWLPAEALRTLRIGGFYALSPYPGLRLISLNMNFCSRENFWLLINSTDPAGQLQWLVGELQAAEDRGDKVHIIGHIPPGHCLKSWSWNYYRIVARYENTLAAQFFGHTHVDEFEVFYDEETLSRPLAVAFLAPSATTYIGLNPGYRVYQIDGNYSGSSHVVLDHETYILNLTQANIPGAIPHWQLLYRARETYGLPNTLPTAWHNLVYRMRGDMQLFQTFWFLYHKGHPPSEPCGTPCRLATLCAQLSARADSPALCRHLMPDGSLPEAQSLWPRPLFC
The test is described as follows: Inhibition of recombinant human acid sphingomyelinase expressed in HEKfreestyle293 cells using bodipy-C12 sphingomyelin as substrate and nanomolar to low micromolar concentration of compound after 1 hr by fluorescence assay.
Regarding `CCCCCCCCOc1ccc(-c2ccc(C(=O)Nc3ccc(P(=O)(O)O)cc3)cc2)cc1`, the inhibition result is “Active”.

Take `CCCCCCCCOc1ccc(-c2ccc(C(=O)N(C)c3ccc(C(F)(F)P(=O)(OC)OCC)cc3)cc2)cc1` (stereo not drawn): the inhibition result is “Active”. On to `COc1ccc(-c2ccc(C(=O)Nc3ccccc3CP(=O)(O)O)cc2)cc1`, for which the inhibition result was “Active”.

`CCCCCCCCOc1ccc(-c2ccc(C(=O)N(CC)c3cccc(C(F)(F)P(=O)(OCC)OCC)c3)cc2)cc1`: the inhibition entry was “Active”.

`CCCCCCCCOc1ccc(-c2ccc(C(=O)Nc3ccc(C(F)(F)P(=O)(O)OCC)cc3)cc2)cc1`: the inhibition entry is “Active”. The result for `CCCCCCCCOc1ccc(-c2ccc(C(=O)Nc3ccccc3C(F)(F)P(=O)(OCC)OCC)cc2)cc1` reads “Active”; that for `CCCCCCc1ccc(-c2ccc(C(=O)Nc3ccccc3CP(=O)(O)O)cc2)cc1`, “Active”; that for `CCCCCCCCOc1ccc(-c2ccc(C(=O)Nc3cccc(CCP(=O)(O)O)c3)cc2)cc1`, “Active”. Next, `CCCCCCCCOc1ccc(-c2ccc(C(=O)Nc3ccccc3P(=O)(O)OCC)cc2)cc1`: “Active”. In the case of `CCCCCCCCOc1ccc(-c2ccc(C(=O)Nc3ccc(P(=O)(O)OCC)cc3)cc2)cc1`, the inhibition entry is “Active”.

In the case of `CCCCCCCCOc1ccc(-c2ccc(C(=O)Nc3ccc(C(F)(F)CC(F)(F)P(=O)(OCC)OCC)cc3)cc2)cc1`, the inhibition result is “Active”. The result for `O=C(Nc1ccccc1CP(=O)(O)O)c1ccc(-c2ccc(OCc3ccccc3)cc2)cc1` reads “Active”.

On to `CCCCCCCCOc1ccc(-c2ccc(C(=O)Nc3ccc(C(F)(F)C(F)(F)P(=O)(OCC)OCC)cc3)cc2)cc1`, for which the inhibition result was “Active”. The result for `CCCCCCCCOc1ccc(-c2ccc(C(=O)Nc3ccc(CCP(=O)(O)O)cc3)cc2)cc1` reads “Active”; that for `CCCCCCCCOc1ccc(-c2ccc(C(=O)Nc3cccc(P(=O)(O)OCC)c3)cc2)cc1`, “Active”. The result for `CCCCCCCCOc1ccc(-c2ccc(C(=O)N(C)c3cccc(C(F)(F)P(=O)(OCC)OCC)c3)cc2)cc1` reads “Active”. Next, `CCCCCCCCOc1ccc(-c2ccc(C(=O)Nc3cccc(N4CC(=O)NS4(=O)=O)c3)cc2)cc1`: “Active”; `CCCCCCCCOc1ccc(-c2ccc(C(=O)Nc3ccccc3C(F)(F)C(F)(F)P(=O)(O)O)cc2)cc1`: “Active”; `CCCCCCCCOc1ccc(-c2ccc(C(=O)Nc3cccc(CCP(=O)(OCC)OCC)c3)cc2)cc1`: “Active”. In the case of `CCCCCCCCOc1ccc(-c2ccc(C(=O)Nc3cccc(C(F)(F)C(F)(F)P(=O)(OCC)OCC)c3)cc2)cc1`, the inhibition entry was “Active”.

As for `CCCCCCCCOc1ccc(-c2ccc(C(=O)Nc3ccccc3C(F)(F)P(=O)(OC)OCC)cc2)cc1` (stereo not drawn), the inhibition entry is “Active”.

Take `CCCCCCCCOc1ccc(-c2ccc(C(=O)Nc3ccccc3P(=O)(O)O)cc2)cc1`: the inhibition entry is “Active”. The result for `O=C(Nc1ccccc1CP(=O)(O)O)C12CC3CC(C1)CC(c1ccccc1)(C3)C2` reads “Active”; that for `CCCCCCCCOc1ccc(-c2ccc(C(=O)Nc3cccc(CP(=O)(O)OCC)c3)cc2)cc1`, “Active”. With `CCCCCCCCOc1ccc(-c2ccc(C(=O)Nc3ccc(CP(=O)(O)O)cc3)cc2)cc1`, the inhibition entry was “Active”.

Take `CCCCCCCCOc1ccc(-c2ccc(C(=O)N(C)c3cccc(C(F)(F)P(=O)(O)O)c3)cc2)cc1`: the inhibition result was “Active”. On to `CCCCCCCCOc1ccc(-c2ccc(C(=O)Nc3ccccc3CCP(=O)(OCC)OCC)cc2)cc1`, for which the inhibition entry was “Active”. Take `CCCCOc1ccc(-c2ccc(C(=O)Nc3ccccc3CP(=O)(O)O)cc2)cc1`: the inhibition result is “Active”. Next, `O=C(Nc1ccccc1CP(=O)(O)O)c1ccc(-c2ccc(O)cc2)cc1`: “Active”; `CCCCCCCCOc1ccc(-c2ccc(C(=O)Nc3ccc(C(F)(F)P(=O)(OCC)OCC)cc3)cc2)cc1`: “Active”.

As to `CCCCCCCCOc1ccc(-c2ccc(C(=O)Nc3cccc(CP(=O)(O)O)c3)cc2)cc1`, the inhibition entry was “Active”. With `CCCCCCCCOc1ccc(-c2ccc(C(=O)N(C)c3cccc(C(F)(F)P(=O)(O)OCC)c3)cc2)cc1`, the inhibition entry is “Active”. Next, `CCCCCCCCOc1ccc(-c2ccc(C(=O)Nc3cccc(P(=O)(O)O)c3)cc2)cc1`: “Active”.

`CCCCCCCCOc1ccc(-c2ccc(C(=O)Nc3cccc(C(F)(F)C(F)(F)P(=O)(O)O)c3)cc2)cc1`: the inhibition entry is “Active”. Next, `CCCCCCCCOc1ccc(-c2ccc(C(=O)N(C)c3ccc(C(F)(F)P(=O)(O)O)cc3)cc2)cc1`: “Active”; `CCCCCCCCOc1ccc(-c2ccc(C(=O)Nc3ccc(CCP(=O)(OCC)OCC)cc3)cc2)cc1`: “Active”; `CCCCCCCCOc1ccc(-c2ccc(C(=O)Nc3ccccc3CCP(=O)(O)O)cc2)cc1`: “Active”.

With `CCCCCCCCCCOc1ccc(-c2ccc(C(=O)Nc3ccccc3P(=O)(OCC)OCC)cc2)cc1`, the inhibition result is “Active”.

As to `CCCCCCCCOc1ccc(-c2ccc(C(=O)N(C)c3ccccc3C(F)(F)P(=O)(O)O)cc2)cc1`, the inhibition result is “Active”. Next, `CCCCCCCCOc1ccc(-c2ccc(C(=O)Nc3ccc(C(F)(F)C(F)(F)P(=O)(O)O)cc3)cc2)cc1`: “Active”; `CCCCCCCCCCOc1ccc(-c2ccc(C(=O)Nc3ccccc3CP(=O)(O)O)cc2)cc1`: “Active”. The result for `CCCCCCCCOc1ccc(-c2ccc(C(=O)Nc3cccc(C(F)(F)P(=O)(O)OCC)c3)cc2)cc1` reads “Active”; that for `CCCCCCc1ccc(-c2ccc(C(=O)Nc3ccccc3CP(=O)([O-])OCC[N+](C)(C)C)cc2)cc1`, “Active”; that for `CCCCCCCCOc1ccc(-c2ccc(C(=O)Nc3ccccc3C(F)(F)P(=O)(O)O)cc2)cc1`, “Active”.

For `CCCCCCCCOc1ccc(-c2ccc(C(=O)Nc3cccc(CP(=O)(OCC)OCC)c3)cc2)cc1`, the inhibition entry was “Active”. Regarding `O=C(Nc1ccccc1CP(=O)(O)O)c1ccc(-c2ccccc2)cc1`, the inhibition entry is “Active”.

For `CCCCCCCCOc1ccc(-c2ccc(C(=O)N(C)c3ccc(C(F)(F)P(=O)(OCC)OCC)cc3)cc2)cc1`, the inhibition result is “Active”.

As to `CCCCCCCCOc1ccc(-c2ccc(C(=O)Nc3cccc(C(F)(F)P(=O)(O)O)c3)cc2)cc1`, the inhibition entry is “Active”. The result for `CCCCCCCCOc1ccc(-c2ccc(C(=O)Nc3ccc(P(=O)(OCC)OCC)cc3)cc2)cc1` reads “Active”. Next, `CCCCCCCCOc1ccc(-c2ccc(C(=O)Nc3ccc(C(F)(F)C(F)(F)P(=O)(O)OCC)cc3)cc2)cc1`: “Active”. The result for `CCCCCCCCOc1ccc(-c2ccc(C(=O)Nc3ccc(C(F)(F)P(=O)(O)O)cc3)cc2)cc1` reads “Active”; that for `CCCCCCCCOc1ccc(-c2ccc(C(=O)Nc3cccc(P(=O)(OCC)OCC)c3)cc2)cc1`, “Active”; that for `CCCCCCCCOc1ccc(-c2ccc(C(=O)N(C)c3ccccc3C(F)(F)P(=O)(OC)OCC)cc2)cc1` (stereo not drawn), “Active”. Turning to `CCCCCCCCOc1ccc(-c2ccc(C(=O)Nc3ccccc3P(=O)(OCOC(=O)C(C)(C)C)OCOC(=O)C(C)(C)C)cc2)cc1`, the inhibition result was “Active”. As for `CCCCCCCCOc1ccc(-c2ccc(C(=O)Nc3cccc(C(F)(F)P(=O)(OCC)OCC)c3)cc2)cc1`, the inhibition result is “Active”. The result for `CCCCCCCCOc1ccc(-c2ccc(C(=O)Nc3ccccc3P(=O)(OCC)OCC)cc2)cc1` reads “Active”; that for `CCCCCCCCOc1ccc(-c2ccc(C(=O)Nc3ccccc3CP(=O)(O)O)cc2)cc1`, “Active”; that for `CCCCCCCCOc1ccc(-c2ccc(C(=O)Nc3ccccc3C(F)(F)C(F)(F)P(=O)(OCC)OCC)cc2)cc1`, “Active”.

For the compound `CCCCCCCCOc1ccc(-c2ccc(C(=O)N(C)c3cccc(C(F)(F)P(=O)(OC)OCC)c3)cc2)cc1` (stereo not drawn), the inhibition entry was “Active”.

On to `CCCCCCCCOc1ccc(-c2ccc(C(=O)N(C)c3ccccc3C(F)(F)P(=O)(OCC)OCC)cc2)cc1`, for which the inhibition result is “Active”.

In the case of `CCCCCCCOc1ccc(-c2ccc(C(=O)Nc3cccc(P(=O)(O)O)c3)cc2)cc1`, the inhibition entry is “Active”. Next, `CCCCCCCCOc1ccc(-c2ccc(C(=O)Nc3ccccc3P(=O)(O)OCOC(=O)C(C)(C)C)cc2)cc1`: “Active”. Next, `CCCCCCCCOc1ccc(-c2ccc(C(=O)Nc3ccccc3C(F)(F)P(=O)(O)OCC)cc2)cc1`: “Active”.
